The values below come from patent US12344610B2, “APOL1 inhibitors and methods of use” (Maze Therapeutics, Inc., priority 2022, dated 2025).

Like-named read-outs stand apart in the source and are kept apart here.

For assay [1], the system named is Trypanosoma brucei Lister 427 VSG221 with APOL1 G0 recombinant protein. The experiment in a line: APOL1 G0 trypanosome cell rescue assay (Example B5). The note with it: geometric mean of at least 2 assay runs, † = single assay run. The assay is classed as cell-based. Put shortly: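 Viability read by CellTiter-Glo luminescence after 20 h co-incubation (37° C, 5% CO2) of 250 trypanosomes/well in modified HMI-9 with test compound (duplicate 11-point, 2-fold dilutions, 0.4% DMSO) and APOL1 protein, […]. Protein: mature residues 28-398, E. coli inclusion-body refolded, tag cleaved, in DDM.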

For assay [2], the system named is HEK293 clonal cell line overexpressing APOL1 G1. The experiment in a line: APOL1 G1 HEK293 cell rescue assay (Example B3). It counts as cell-based. As to conditions: geometric mean of at least 2 runs, † = single run, ¥ = concentration at 50% rescue estimated (no sigmoidal curve). Put shortly:
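Rescue of cell death caused by APOL1 G1 overexpression was measured in a clonal HEK293 line. Compounds were tested in duplicate on one plate, and EC50s were geometric means across at least two runs on different days. Some values are estimated 50%-rescue concentrations where curve fitting failed.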

Setting [3] is: Trypanosoma brucei, 20 h, read-out: APOL1 G0 Trypanosome Rescue EC50, Trypanosoma brucei Lister 427 VSG221 with APOL1 G0 recombinant protein, 20 hours, CellTiter-Glo.
The mark [4] stands for this setting: HEK293 clonal line overexpressing APOL1 G1.
Setting [5] is: Homo sapiens, HEK293, HEK293 clonal line overexpressing APOL1 G1.
Where [6] appears, read: read-out: APOL1 G0 Trypanosome Rescue EC50, Trypanosoma brucei Lister 427 VSG221 with APOL1 G0 recombinant protein, 20 hours, CellTiter-Glo.

As usually defined, the EC50 is the concentration at which the effect is half-maximal.

In the case of `CC(COc1ccc2c(c1)CCC(=O)N2C)N1CCC2(CC1)C(=O)Nc1ccc(Cl)cc12` (single isomer, unassigned) [Compound 200], the EC50 in assay [1] (setting [3]) is 185 nM; in assay [2] (setting [4]), 203 nM.

`CC(COc1ccc2c(c1)CCC(=O)N2C)N1CCC2(CC1)C(=O)Nc1ccc(C#N)cc12` (single isomer, unassigned) [Compound 203, (S) or (R)-1′-{1-[(1-methyl-2-oxo-1,2,3,4-tetrahydroquinolin-6-yl)oxy]propan-2-yl}-2-oxo-1,2-dihydrospiro[indole-3,4′-piperidine]-5-carbonitrile]: the EC50 in assay [1] (setting [3]) is 565 nM; in assay [2] (setting [4]) it was 457 nM.

For the compound `C[C@@H](COc1ccc(S(C)(=O)=O)c(C(F)F)c1)N1CCC2(CC1)C(=O)Nc1ccc(Cl)cc12` (single isomer, unassigned) [Compound 210], the EC50 in assay [1] (setting [3]) is 63.8 nM; in assay [2] (setting [5]), 153 nM.

For the compound `C[C@@H](COc1ccc2c(cnn2C)c1)N1CCC2(CC1)C(=O)Nc1ccc(Cl)cc12` (single isomer, unassigned) [Compound 211], the EC50 is 480 nM in assay [1] (setting [3]) and 380 nM in assay [2] (setting [5]).

With `C[C@@H](COc1ccc(S(C)(=O)=O)c(C(F)F)c1)N1CCC2(CC1)C(=O)Nc1ccc(C#N)cc12` (single isomer, unassigned) [Compound 212], the figures for the EC50 in assay [1] (setting [3]) and in assay [2] (setting [5]) were 69.6 nM and 192 nM, respectively.

As for `CS(=O)(=O)c1ccc(OCCN2CCC3(CC2)C(=O)Nc2ccc(Cl)cc23)cc1C(F)CF` (single isomer, unassigned) [Compound 218, 5-chloro-1′-(2-{3-[(1S or 1R)-1,2-difluoroethyl]-4-methanesulfonylphenoxy}ethyl)-1,2-dihydrospiro[indole-3,4′-piperidin]-2-one], the EC50 in assay [1] (setting [6]) was 65.1 nM; in assay [2] (setting [5]), 125 nM.

For the compound `CS(=O)(=O)c1ccc(OCCN2CCC3(CC2)C(=O)Nc2ccc(Cl)cc23)cc1C(F)CF` (single isomer, unassigned) [Compound 219, 5-chloro-1′-(2-{3-[(1R or 1S)-1,2-difluoroethyl]-4-methanesulfonylphenoxy}ethyl)-1,2-dihydrospiro[indole-3,4′-piperidin]-2-one], the EC50 in assay [1] (setting [6]) was 22.3 nM; in assay [2] (setting [4]), 116 nM.

Consider `CS(=O)(=O)c1ccc(OCCN2CCC3(CC2)C(=O)Nc2ccc(C#N)cc23)cc1C(F)CF` (single isomer, unassigned) [Compound 221, 1′-(2-{3-[(1S or 1R)-1,2-difluoroethyl]-4-methanesulfonyl-phenoxy}ethyl)-2-oxo-1,2-dihydrospiro [indole-3,4′-piperidine]-5-carbonitrile], for which the results for the EC50 in assay [1] (setting [3]) and in assay [2] (setting [4]) were 75 nM and 217 nM, respectively.

Turning to `CC(COc1ccc(C2(S(C)(=O)=O)COC2)cc1)N1CCC2(CC1)C(=O)Nc1ccc(C#N)cc12` (single isomer, unassigned) [Compound 263, (S) or (R)-1′-{1-[4-(3-methanesulfonyloxetan-3-yl)phenoxy]propan-2-yl}-2-oxo-1,2-dihydrospiro[indole-3,4′-piperidine]-5-carbonitrile], the EC50 is 226 nM in assay [1] (setting [3]) and 462 nM in assay [2] (setting [4]).

On to `CN1C(=O)C2(CCN(CCOc3ccc(C4(S(C)(=O)=O)CC(O)C4)cc3)CC2)c2cc(C(F)F)ccc21` (single isomer, unassigned) [Compound 278, 5-(difluoromethyl)-1-methyl-1′-(2-{4-[(cis) or (trans)-3-hydroxy-1-methanesulfonylcyclobutyl]phenoxy}ethyl)-1,2-dihydrospiro[indole-3,4′-piperidin]-2-one], for which the values for the EC50 in assay [1] (setting [3]) and in assay [2] (setting [4]) were 114 nM and 92.6 nM, respectively.

On to `CS(=O)(=O)C1(c2ccc(OCCN3CCC4(CC3)C(=O)Nc3ccc(C(F)F)cc34)cc2)CC(O)C1` (single isomer, unassigned) [Compound 281, 5-(difluoromethyl)-1′-(2-{4-[(cis) or (trans)-3-hydroxy-1-methanesulfonylcyclobutyl]phenoxy}ethyl)-1,2-dihydrospiro[indole-3,4′-piperidin]-2-one], for which the EC50 in assay [1] (setting [3]) was 95.9 nM; in assay [2] (setting [4]), 164 nM.

For the compound `CC(O)c1ncc(OCCN2CCC3(CC2)C(=O)Nc2ccc(Cl)cc23)cn1` (single isomer, unassigned) [Compound 285, 5-chloro-1′-[2-({2-[(1S) or (1R)-1-hydroxyethyl]pyrimidin-5-yl}oxy)ethyl]-1,2-dihydrospiro[indole-3,4′-piperidin]-2-one], the EC50 in assay [1] (setting [3]) was 547 nM; in assay [2] (setting [5]), 292 nM.

Turning to `CC(O)c1ncc(OCCN2CCC3(CC2)C(=O)Nc2ccc(Cl)cc23)cn1` (single isomer, unassigned) [Compound 286, 5-chloro-1′-[2-({2-[(1R) or (1S)-1-hydroxyethyl]pyrimidin-5-yl}oxy)ethyl]-1,2-dihydrospiro[indole-3,4′-piperidin]-2-one], the results for the 50% effective concentration (EC50) in assay [1] (setting [6]) and in assay [2] (setting [4]) were 505 nM and 272 nM, respectively.

With `CC(O)c1ncc(OCCN2CCC3(CC2)C(=O)Nc2ccc(C(F)F)cc23)cc1C(F)(F)F` (single isomer, unassigned) [Compound 287, 5-(difluoromethyl)-1′-[2-({6-[(1S) or (1R)-1-hydroxyethyl]-5-(trifluoromethyl)pyridin-3-yl}oxy)ethyl]-1,2-dihydrospiro[indole-3,4′-piperidin]-2-one], the figures for the EC50 in assay [1] (setting [3]) and in assay [2] (setting [5]) were 37.6 nM and 85.8 nM, respectively.

As to `CC(O)c1ncc(OCCN2CCC3(CC2)C(=O)Nc2ccc(C(F)F)cc23)cc1C(F)(F)F` (single isomer, unassigned) [Compound 288, 5-(difluoromethyl)-1′-[2-({6-[(1R) or (1S)-1-hydroxyethyl]-5-(trifluoromethyl)pyridin-3-yl}oxy)ethyl]-1,2-dihydrospiro[indole-3,4′-piperidin]-2-one], the EC50 in assay [1] (setting [6]) was 26.2 nM; in assay [2] (setting [4]), 62.1 nM.

As for `CC[C@]1(O)C[C@H](N2C(=O)CCc3cc(OCCN4CCC5(CC4)C(=O)Nc4ccc(Cl)cc45)cnc32)C1` (single isomer, unassigned) [Compound 290, 5-chloro-1′-[2-({7-oxo-8-[(trans)-3-ethyl-3-hydroxycyclobutyl]-5,6,7,8-tetrahydro-1,8-naphthyridin-3-yl}oxy)ethyl]-1,2-dihydrospiro[indole-3,4′-piperidin]-2-one], the EC50 is 55.5 nM in assay [1] (setting [3]) and 63.9 nM in assay [2] (setting [5]).

For the compound `CC(O)c1ncc(OCCN2CCC3(CC2)C(=O)Nc2ccc(Cl)cc23)cc1C(F)(F)F` (single isomer, unassigned) [Compound 291, 5-chloro-1′-[2-({6-[(1R) or (1S)-1-hydroxyethyl]-5-(trifluoromethyl)pyridin-3-yl}oxy)ethyl]-1,2-dihydrospiro[indole-3,4′-piperidin]-2-one], the EC50 in assay [1] (setting [3]) is 63.1 nM; in assay [2] (setting [4]), 104 nM.

With `CC(O)c1ncc(OCCN2CCC3(CC2)C(=O)Nc2ccc(Cl)cc23)cc1C(F)(F)F` (single isomer, unassigned) [Compound 292, 5-chloro-1′-[2-({6-[(1S) or (1R)-1-hydroxyethyl]-5-(trifluoromethyl)pyridin-3-yl}oxy)ethyl]-1,2-dihydrospiro[indole-3,4′-piperidin]-2-one], the EC50 in assay [1] (setting [6]) is 31.6 nM; in assay [2] (setting [4]), 51.5 nM.

Take `O=C1CCc2cc(OCCN3CCC4(CC3)C(=O)Nc3ccc(Cl)cc34)cnc2N1[C@H]1C[C@@](O)(C2CC2)C1` (single isomer, unassigned) [Compound 297, 5-chloro-1′-[2-({7-oxo-8-[(trans)-3-cyclopropyl-3-hydroxycyclobutyl]-5,6,7,8-tetrahydro-1,8-naphthyridin-3-yl}oxy)ethyl]-1,2-dihydrospiro[indole-3,4′-piperidin]-2-one]: the EC50 was 72.6 nM in assay [1] (setting [3]) and 119 nM in assay [2] (setting [5]).

As to `C[C@]1(O)C[C@H](N2C(=O)CCc3cc(OCCN4CCC5(CC4)C(=O)Nc4ccc(Cl)cc45)cnc32)C1` (single isomer, unassigned) [Compound 307, 5-chloro-1′-[2-({7-oxo-8-[(trans)-3-hydroxy-3-methylcyclobutyl]-5,6,7,8-tetrahydro-1,8-naphthyridin-3-yl}oxy)ethyl]-1,2-dihydrospiro[indole-3,4′-piperidin]-2-one], the EC50 is 65.7 nM in assay [1] (setting [3]) and 70 nM in assay [2] (setting [5]).

For the compound `CS(=O)(=O)c1ccc(OCCN2CCC3(CC2)C(=O)N(CCO)c2ccc(Cl)cc23)cc1` [Compound 18, 5-chloro-1-(2-hydroxyethyl)-1′-[2-(4-methanesulfonylphenoxy)ethyl]-1,2-dihydrospiro[indole-3,4′-piperidin]-2-one], the EC50 in assay [1] (setting [3]) was 690 nM; in assay [2] (setting [5]) it was 663 nM.

Regarding `COCCN1C(=O)C2(CCN(CCOc3ccc(S(C)(=O)=O)cc3)CC2)c2cc(Cl)ccc21` [Compound 20, 5-chloro-1′-[2-(4-methanesulfonylphenoxy)ethyl]-1-(2-methoxyethyl)-1,2-dihydrospiro[indole-3,4′-piperidin]-2-one], the EC50 was 798 nM in assay [1] (setting [3]) and 815 nM in assay [2] (setting [5]).

On to `CN1C(=O)C2(CCN(CCOc3ccc(S(=O)(=O)CCCS(C)(=O)=O)cc3)CC2)c2cc(Cl)ccc21` [Compound 23, 5-chloro-1′-{2-[4-(3-methanesulfonylpropanesulfonyl)phenoxy]ethyl}-1-methyl-1,2-dihydrospiro[indole-3,4′-piperidin]-2-one], for which the values for the EC50 in assay [1] (setting [3]) and in assay [2] (setting [5]) were 321 nM and 449 nM, respectively.
